Laboratory results published in PMC4837544, “Differential kinetic profiles and metabolism of primaquine enantiomers by human hepatocytes” (Malaria Journal, 2016).
Like-named read-outs stand apart in the source and are kept apart here.

Legend:
[1] = test system: primary human hepatocytes; format: in vitro ADME; details: for enantiomer from which the metabolite is generated: 20 µM (+)-, (−)- and (±)-PQ; for amount detected: peak areas too minute to profile
Protocol: (§1) A separate control incubation of PQ and the two enantiomers in the cell-free hepatocyte media was performed to detect any non-enzymatically generated product. Metabolic reactions were halted by the addition of two volumes of ice-cold methanol containing 0.5 µg/mL 6-d3-methoxyprimaquine as an internal standard at predetermined time intervals. This mixture was vortexed and kept at −20 °C for at least 4 h before further analysis. Parallel incubation of substrate-free hepatocytes was performed. At each time point, aliquots were taken for cell viability measurement.
(§2) In preparation for HPLC–MS analysis, samples were centrifuged (10,000g, 10 min) and clear supernatants were dried using a Speedvac. The dried samples were re-suspended in 150 µL methanol, centrifuged and clear supernatants were transferred to HPLC sample vials for analysis.
(§3) The analytical method for simultaneous analysis of primaquine and its metabolites using the Ultra-High Performance Liquid Chromatography-Mass Spectrometry (UHPLC-QToF-MS), as earlier developed and reported was employed in this study. […] Details of the chromatography set-up are published.
Metabolites in the accurate mass data were found using the Metabolynx® software. The data were searched using predicted metabolite mass, mass defects, isotope, and fragmentation patterns. Each sample was subjected to data acquisition in full scan and data-dependent positive MS/MS, targeted MS/MS (ESI positive ionization mode) and high-resolution MS (HRMS) modes using the Waters ACQUITY™ XEVO QTOF Mass Spectrometer (Waters Corporation, Manchester, UK) connected to the UHPLC system via an electrospray ionization (ESI) interface. Metabolites were distinguished from artifacts and unrelated products by the presence of twin peaks with a mass difference of six, arising from the six labels in the 1:1 mixture of 12-C and 13-C-labelled PQ. The Identification of each metabolite was assisted by its HRMS data, which were used to calculate their elemental compositions. The full scan mass data were screened and filtered using Waters MetaboLynx XS software. The qualitative metabolite identification was performed using this software package.

[2] = Control incubation in cell-free hepatocyte media (non-enzymatic products); format: in vitro ADME
Protocol: as §1, with “PQ, racemic and enantiomers, prepared as a 1:1 mixture of 12-C and 13-C-labelled compounds, were separately incubated at a final concentration of 20 µM in the cell-containing plating media using the 48-well plate at 37 °C under a humidified atmosphere of 95 % air and 5 % CO2 in an Eppendorf incubator (Hauppauge, NY, USA) attached with a shaker set at 75 rpm. A separate” for “A separate”

[3] = test system: primary human hepatocytes; assay: Substrate depletion / intrinsic clearance of PQ and its enantiomers in cryopreserved human hepatocytes; details: for λ elimination rate constant / t½ (initial half-life) / substrate depleted: 20 µM; for λ elimination rate constant / substrate depleted: human hepatocytes 1 million cells/mL; for λ elimination rate constant: log-linear regression 0–60 min; for substrate depleted: by 2 h; for CLh,b (% hepatic blood flow): human Qh 20.7 mL/min/kg
Excerpt: (§4) Pooled mixed-gender cryopreserved metabolism-qualified (CYP1A2, 2B6, 2C8, 2C9, 2C19, 2D6, 3A4, UGT2B7, UDP-glucuronosyltransferase) primary human hepatocytes (catalog number 454504) sourced from free donors (who were free of HIV, HBV, HCV and other liver-related diseases) were purchased from Corning Life Sciences (Woburn MA, USA) and stored in liquid nitrogen until use.
(§5) The cryopreserved hepatocytes were thawed and the cells were suspended in recovery medium (Corning Life Sciences). According to the supplier’s instructions, the suspended cells were centrifuged (300g, 5 min), the recovery medium discarded and the cells were re-suspended in the plating medium. Viability of the suspended hepatocytes was computationally determined based on cell counts using a Bio-Rad automated cell counter (Hercules, CA, USA). The cell density was adjusted to approximately 1X10^6 viable cells/mL in the plating media.
as §1, with “PQ, racemic and enantiomers, prepared as a 1:1 mixture of 12-C and 13-C-labelled compounds, were separately incubated at a final concentration of 20 µM in the cell-containing plating media using the 48-well plate at 37 °C under a humidified atmosphere of 95 % air and 5 % CO2 in an Eppendorf incubator (Hauppauge, NY, USA) attached with a shaker set at 75 rpm. A separate” for “A separate”
as §2, §3
(§6) Initial half-life (t^1/2) and elimination rate constants (λ = ln2/t^1/2) of PQ in hepatocyte incubates were calculated by log-linear regression of PQ concentrations profiled against time using data from the sampling points of the 20 µM PQ incubates. The intrinsic clearance in vitro (CLint in vitro) was calculated from λ and the cell density in the respective incubation (number of viable hepatocytes per mL at time zero) and scaled up to the intrinsic clearance in vivo (CLint in vivo) using the human liver mass (25.7 g/kg body mass) and the hepatocellularity (number of hepatocytes per gram of liver = 99 millions cells/g liver): CLint in vitro = λ/cell density. CLint in vivo = CLint in vitro × liver mass × heptocellularity. From CLint in vivo and the hepatic blood flow [Q (20.7 mL/min)/kg body mass], the hepatic metabolic blood clearance (CLh,b) was predicted using the well-stirred model: CLh,b = (CLint in vivo × Q)/(CLint in vivo + Q).
(§7) Since this estimation was for comparisons between enantiomers only, no corrections were made for the free fractions in vitro or in vivo—i.e. they were assumed to be identical.

[4] = test system: recombinant human CYP2D6; design: method as in PMID 25518709; details: cited from earlier work; for depletion of PQ enantiomers: 2 h incubation with recombinant human CYP2D6 ref 12
[5] = test system: malaria; design: method as in PMID 24913163; details: suppressive and prophylactic assays, mice ref 8; cited from earlier work
[6] = test system: Pneumocystis carinii; design: method as in PMID 24913163; details: mice ref 8; cited from earlier work
[7] = design: method as in PMID 24913163, PMID 25267666; details: beagle dogs and mouse models ref 8, 9; cited from earlier work
[8] = design: method as in PMID 24913163, PMID 25267666; details: beagle dogs, humanized mouse model and monkeys ref 8, 9; cited from earlier work
[9] = design: method as in PMID 25637634; details: cited from earlier work
[10] = design: method as in PMID 25267666, PMID 25637634, PMID 23378100; details: after racemic PQ in mice, monkeys and humans ref 9, 15, 16; cited from earlier work
[11] = Substrate depletion / intrinsic clearance of PQ and its enantiomers in cryopreserved human hepatocytes; details: both, human; for half-life at 20 µM: hepatocytes, t½ (initial half-life), human hepatocytes
Excerpt: as §4, §5
as §1, with “PQ, racemic and enantiomers, prepared as a 1:1 mixture of 12-C and 13-C-labelled compounds, were separately incubated at a final concentration of 20 µM in the cell-containing plating media using the 48-well plate at 37 °C under a humidified atmosphere of 95 % air and 5 % CO2 in an Eppendorf incubator (Hauppauge, NY, USA) attached with a shaker set at 75 rpm. A separate” for “A separate”
as §2, §3, §6, §7

[12] = test system: primary human hepatocytes; assay: Hepatocyte viability time course by cell counts in presence and absence of PQ; format: cell-based
Protocol: Parallel incubation of substrate-free hepatocytes was performed.

[13] = design: method as in PMID 25645856; details: mice, therapeutic doses ref 22; cited from earlier work
[14] = design: method as in PMID 24913163, PMID 25267666; details: monkeys, higher than therapeutic doses ref 8, 9; cited from earlier work
[15] = human hepatocytes, computed from λ
[16] = human hepatocytes, computed from λ (ln2/λ)

With COc1cc(NC(C)CCCNC2OC(CO)C(O)C(O)C2O)c2ncccc2c1 (stereo not drawn) [glycosylated conjugate of PQ] the “enantiomer from which the metabolite is generated” value [1] was “preferentially generated by (+)-PQ”, the “enantiomer from which the metabolite is generated” value ([1]; listed as PQ conjugate formed by apparent N-glucosylation) was “preferentially formed with (+)-PQ” and the “enantiomer from which the metabolite is generated” value ([1]; listed as glycosylated PQ) was “preferentially generated from (+)-PQ”. The “time of peak formation” value ([1]; biphasic increase) was at most 30 min and the “formation in cell-free media” value [2] was “formed non-enzymatically”.
For COc1cc(NC(C)CCCN)c2nc(O)ccc2c1 (stereo not drawn) [2-hydroxyprimaquine], the “enantiomer from which the metabolite is generated” value [1] was “exclusively generated from the (+)-PQ” and the amount detected [1] was “trace amounts”.
For COc1cc(N[C@@H](C)CCCN)c2ncccc2c1 [(+)-PQ, (+)-(S)-primaquine], the “λ elimination rate constant” value [3] was 0.19 h⁻¹, the “t½ (initial half-life)” value [3, 15] was 3.62 h and the “t½ (initial half-life)” value [3, 16] was 3.62 h. The substrate depleted [3] was 16%, the “rate of hepatic clearance of (+)-PQ relative to that of (−)-PQ” value ([3]; extrapolated in vivo human hepatic blood clearance, well-stirred liver model) was 45% and the “CLh,b (% hepatic blood flow)” value [3] was 24 % hepatic blood flow. For the same compound, the “initial half-life compared with (−)-PQ” value ([3]; human hepatocytes) was “more than three times longer”, the “depletion of PQ enantiomers” value [4] was 50% and the “rate of metabolism compared to (−)-PQ” value ([4]; in vitro with recombinant human CYP2D6 ref 12) was “significantly higher”. The “anti-malarial activity compared with (−)-PQ” value [5] was “more active than (−)-PQ”, the “Pneumocystis carinii pneumonia efficacy compared with (−)-PQ” value [6] was “more active than (−)-PQ” and the acute toxicity [7] was “higher acute toxicity than (−)-PQ”. For the same compound, the methaemoglobinemia [8] was “higher methaemoglobinemia than (−)-PQ”.
With COc1cc(NC(C)CCCN)c2nccc(O)c2c1 (stereo not drawn) [4-hydroxyprimaquine] the “enantiomer from which the metabolite is generated” value [1] was “exclusively generated from the (+)-PQ” and the amount detected [1] was “trace amounts”.
In the case of COc1cc([N+]2=CCCC2C)c2ncccc2c1 (stereo not drawn), the “enantiomer from which the metabolite is generated” value [1] is reported as “preferentially generated from the (−)-PQ”.
In the case of COc1cc(NC(C)CCC(=O)O)c2ncccc2c1 (stereo not drawn) [CPQ, carboxyprimaquine], the “enantiomer from which the metabolite is generated” value [1] is listed as “preferentially generated from the (−)-PQ”, the “portion of metabolite generated within 30 min” value ([1]; 2 h incubation) is listed as 75% and the “CPQ peak plasma concentration from (−)-PQ relative to from (+)-PQ” value ([9]; human, after racemic primaquine ref 15) is listed as 15 times. The “enantiomeric form in plasma” value [10] was “predominantly the (−)-form”.
In the case of COc1cc(NC(C)CCC(=O)OC2OC(C(=O)O)C(O)C(O)C2O)c2ncccc2c1 [CPQ glucuronide, Carboxyprimaquine-β-D-glucuronide], the “enantiomer from which the metabolite is generated” value [1] is reported as “preferentially generated from the (−)-PQ”.
For COc1cc(NC(C)CCCO)c2ncccc2c1 (stereo not drawn) [PQ terminal alcohol, primaquine alcohol], the “enantiomer from which the metabolite is generated” value [1] was “preferentially generated from the (−)-PQ”.
In the case of COc1cc(NC(C)CCCNC(=O)OC2OC(C(=O)O)C(O)C(O)C2O)c2ncccc2c1 [N-carbamoyl glucuronide of PQ, (S)-primaquine-N-carbamoyl-β-D-glucuronide], the “enantiomer from which the metabolite is generated” value [1] is reported as “exclusively formed from (+)-PQ” and the “enantiomer from which the metabolite is generated” value ([1]; listed as carbamoyl glucuronide of PQ) is reported as “exclusively generated from (+)-PQ”.
With COc1cc(NC(C)CCCN)c2ncccc2c1 (racemic) [(±)-PQ, primaquine] the Km [11] was 37 µM, the k el at 20 µM [11] was 9.44e-05 s⁻¹ and the half-life at 20 µM ([11]; computed from λ) was 2.03 h. For the same compound, the half-life at 20 µM ([11]; computed from λ (ln2/λ)) was 2.03 h, the substrate depleted [3] was 30% and the “CLh,b (% hepatic blood flow)” value [3] was 36 % hepatic blood flow. For the same compound, the “direct hepatocellular toxicity (viable cell counts vs drug-free incubation)” value ([12]; 20 µM, up to 2 h) was “absence of PQ-induced direct hepatocellular toxicity”, the hepatocyte viability ([12]; at the 2 h termination time, drug-free and PQ-containing incubates similar) was 88 % of the starting value and the “expected peak plasma concentrations” value ([9]; humans ref 15) was under 2 µM. The “liver concentration relative to plasma” value [13] was “about 20 times”.
For COc1cc(NC(C)CCCOC2OC(C(=O)O)C(O)C(O)C2O)c2ncccc2c1 [glucuronide of PQ alcohol, Primaquine alcohol-O-β-D-glucuronide], the “enantiomer from which the metabolite is generated” value [1] was “preferentially generated from the (−)-PQ”.
For COc1cc(N2C(=O)CCC2C)c2ncccc2c1 (stereo not drawn), the “enantiomer from which the metabolite is generated” value [1] was “preferentially generated from the (−)-PQ”.
For COc1cc(NC(C)CCCN)c2ncccc2c1 (single isomer, unassigned; (-)) [(−)-PQ, (−)-primaquine], the “λ elimination rate constant” value [3] was 0.64 h⁻¹, the “t½ (initial half-life)” value [3, 15] was 1.08 h and the “t½ (initial half-life)” value [3, 16] was 1.09 h. The substrate depleted [3] was 42%, the “CLh,b (% hepatic blood flow)” value [3] was 51 % hepatic blood flow and the “in vitro clearance compared with (+)-PQ” value ([3]; human hepatocytes) was “three times faster”. The “depletion of PQ enantiomers” value [4] was 30% and the liver damage [14] was “reversible liver damage”.
